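Growth conditions: 96-well plates. Treatment: test compound, 48 hours, 5 concentrations. Analysis: linear interpolation between bracketing concentrations; unreached endpoints set to highest concentration. TGI is the concentration that stops growth completely.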
Experiments:
Test in all cases: NCI anticancer screen, dose series, 48 h
[1] = system: NCI-H23 lung
[2] = system: OVCAR-8 ovarian
[3] = system: U251 CNS
[4] = system: CCRF-CEM leukemia
[5] = system: UACC-257 melanoma
[6] = system: 786-0 renal
[7] = system: SF-295 CNS
[8] = system: HOP-62 NSCLC
[9] = system: HCC-2998 colon
[10] = system: NCI-H460 lung
[11] = system: NCI-H226 lung
[12] = system: HOP-92 NSCLC
[13] = system: HCT-15 colon
[14] = system: A498 renal
[15] = system: SF-268 CNS
[16] = system: MDA-MB-231 breast

Measured: TGI

COc1cc(-c2cn(S(=O)(=O)c3ccc(C)cc3)c3ccccc23)nc(-c2cn(S(=O)(=O)c3ccc(C)cc3)c3ccccc23)n1
24.7 µM: [4]
> 60.9 µM: [12]
0.927 µM: [1]
13.8 µM: [3]
> 91.7 µM: [7]
not listed: [15] | [16]
> 100 µM: all other assays above

COc1ccc(C2=CC(c3ccccc3)n3nnnc3N2)cc1 (configuration not stated)
not listed: [9] | [12] | [14]
> 100 µM: all other assays above

Cc1ccc(S(=O)(=O)c2c(N)c3nc4ccccc4n3c3nc4ccccc4nc23)cc1
not listed: [12] | [14] | [16]
> 100 µM: all other assays above

C=C(CN(C)C)C(=O)c1ccccc1C
35.8 µM: [6]
> 63.1 µM: [13]
34.2 µM: [4]
33.3 µM: [12]
not listed: [16]
> 100 µM: all other assays above

NC(=O)c1nnc2ccc(F)cc2c1N
73.5 µM: [11]
not listed: [12]
> 100 µM: all other assays above

CN(C)CCOc1cccc2c1C(=O)c1ccccc1C2=O
72.5 µM: [3]
25.8 µM: [5]
19.2 µM: [10]
27.3 µM: [15] | [13]
29 µM: [12]
30.3 µM: [9]
24 µM: [1]
30.9 µM: [8]
33.3 µM: [14]
56 µM: [2]
64.9 µM: [4]
52 µM: [6]
29.3 µM: [7]
22.2 µM: [11]

CCc1ccc(N=Cc2cc(OC)c(OC)c(OC)c2)cc1
not listed: [9] | [11] | [16]
> 100 µM: all other assays above

CC1(C)CCC[C@@]2(C)C1CCC1(C)C(CCc3ccoc3)/C(=C/OS(=O)(=O)O)CCC12 (some centres not stated) (tested in a mixture with another compound)
63.2 µM: [12]
not listed: [16]
> 100 µM: all other assays above

O=C(/C=C/c1ccc(OCCCOc2ccc(/C=C/C(=O)c3ccccc3)cc2)cc1)c1ccccc1
not listed: [3] | [12] | [16]
> 100 µM: all other assays above

COc1ccc(/C=C2\CCC(C)C3=C(c4ccc(OC)c(OC)c4)C(C#N)=C(N)OC32)cc1OC (configuration not stated)
9.83 µM: [11]
25.1 µM: [6]
75.9 µM: [7]
17.5 µM: [16]
51.9 µM: [14]
> 100 µM: [15] | [2] | [3]
13.6 µM: [1]
11.1 µM: [10]
19.2 µM: [4]
37 µM: [5]
38 µM: [13]

Cc1cc(N(CCC#N)CCC#N)ccc1/C=C1N=C(/C=C\c2ccccc2)OC\1=O
not listed: [16]
> 100 µM: all other assays above

O=P1(O)C=CC2(CCCC2)O1
not listed: [4] | [11] | [16]
> 100 µM: all other assays above

Reference: PubChem BioAssay (NCI)
